Five compounds from US12686657B2, “Anti-inflammatory carboxamide derivatives” (BIOMEDCODE HELLAS SA, priority 2021, dated 2026) can be followed below.

Holding throughout (type): cell-based, mice
The test system of assay [1] is hTNFtg SFs. The assay can be described thus: CCL5 and CCL20 ELISA on hTNFtg synovial fibroblasts. Particulars: Mus musculus, Fibroblast; for activity at 10 µM: compound 10 μM; for activity at 10 µM / activity at 50 µM / activity at 25 µM: 48 h; for activity at 50 µM: compound 50 μM; for activity at 25 µM: compound 25 μM. On the procedure:
Primary SFs were derived from a) human TNF transgenic (hTNFTg) mice (Keffer et al., 1991) as well as from b) CBA/C57BL6 wild type mice.
hTNFtg mice overexpress human TNF, resulting in the spontaneous development of arthritis.
(§1) SFs were isolated as previously described by Armaka et al., 2009, from the ankle joints of hTNFtg or CBA/C57BL6 wild type (wt) littermates. Briefly, ankle joints were digested with Collagenase IV (Sigma Aldrich, C5138) for 45 minutes at a 37° C. shaking waterbath and after 5 days in culture at 37° C. and 5% CO2, a depletion of CD45+ lineage cells was performed using a Biotin anti-mouse CD45 Antibody (Biolegend, 103104) and Dynabeads™ Biotin Binder (ThermoFisher 11047), according to the manufacturer's protocol. After 10 days in culture, SFs were seeded overnight (O/N) at a concentration of 2×10^4 cells/well in a 96 well plate in 1×DMEM, supplemented with 100 U/ml Penicillin Streptomycin (P/S) and 10% Fetal Bovine Serum (FBS). The next day the cells were synchronized by starvation that included their O/N plating in low serum medium (0.5% FBS). Following the O/N starvation, the hTNFg and the WT SFs were treated with different concentrations of the experimental compounds. The SFs were at the same time activated with 10 ng/ml hTNF (Peprotech, 300-01A). 48 h following the treatment the cell culture supernatants were collected and analyzed by ELISA (R&S Systems, Duoset, DY478 and DY760) according to the manufacturer's protocol, for the detection of CCL5/Rantes and CCL20/Mip3, two known inflammatory chemokines. The IC50 values were determined as the concentration of the compounds required to reduce the levels of secreted CCL5 and CCL20 by 50%.
Table 7 summarizes the reduction of CCL5 and CCL20 levels achieved with the test compounds of the invention. Data are presented as percentages of the chemokine levels detected in treated cells compared to 100% levels of the chemokines detected in the untreated cells.
Table 8 summarizes the values of IC50 and toxicity for the test compounds of the invention. Dose response curves regarding the WT SFs were produced with 10 ng/ml hTNF stimulation for all compounds, with the exception of the compounds E and F, where WT cells were induced using hTNF at 1 ng/ml: […]
Background: ELISA stands for enzyme-linked immunosorbent assay.

Assay [2] concerns hTNFtg SFs. The assay can be described thus: Legendplex pro-inflammatory chemokine panel on hTNFTg synovial fibroblasts. How it is done:
as §1
(§2) The supernatants of the SFs were also analyzed using the Mouse pro-inflammatory chemokine panel from Legendplex™ (Biolegend, 740007), according to manufacturer's instructions, for the simultaneous detection of 13 Mouse chemokines.
(§3) The anti-inflammatory potential of the test compounds 51, 52, 53, E and F on SFs was also assessed using the Mouse pro-inflammatory chemokine panel from Legendplex that allows the simultaneous detection of 13 Mouse chemokines. The effect of compound 51 on SFs was assessed at a dose of 25 μM, while the effect of the test compounds 52, 53, E and F was assessed at a dose of 10 μM. Numbers represent percentages of the chemokine levels secreted from the treated SFs compared to 100% levels of the chemokines detected in the untreated cells (i.e. either hTNFTg SFs or hTNF-activated wt SFs).
(§4) Table 9 summarizes the effect of the test compounds 51, 52 and 53, E and F on the inflammatory chemokines secreted from activated SFs. WT SFs were stimulated with 10 ng/ml hTNF.

In another assay the test system is hTNF-activated wt SFs. Kind of assay: Legendplex pro-inflammatory chemokine panel on hTNF-activated wt synovial fibroblasts. Particulars: 10 ng/ml hTNF. How it is done: as §1, §2, §3, §4
For assay [3], the system named is hTNFtg SFs. Kind of assay: Wound healing assay on activated SFs. Particulars: compound 10 μM, 24 h. On the procedure: Activated SFs were isolated from hTNFtg mice as described above and they were seeded in 24 well plates at a concentration of 2×10^5 cells/well. The next day a straight-line wound was created on the formed cell monolayer using the tip of a 200 μl pipette. Images of the wounds were captured by microscope at a magnification of 4× at two time points. Time point 0 (i.e. the time of the creation of the wound) as well as 24 h later (t=24 h). The area of the wound was measured at each time point using the software ImageJ.
The percent closure of the wound was calculated using the following formula: [(wound area at t0−wound area at t24)/wound area at t0]*100
The assay for each compound was repeated four times.
The inventors wanted to further explore the potential of the test compounds to reduce the activated phenotype of the arthritogenic SFs and studied their effect on a wound healing assay. In this assay a wound is formed on a monolayer of SFs and the rate of closure of this wound is indicative of the proliferation and migration capacity of the SFs, i.e. the slower the closure of the wound, the less proliferative and migratory are the SFs.
The potential ability of the compounds 53, E and F to inhibit the proliferation and migration of activated SFs, was assessed at a concentration of 10 μM and the wound healing assay was performed using hTNFtg SFs, as these cells show increased proliferation and migration potential (Vasilopoulos et al., 2007). The data shown in Table 10 where the percentages of wound closure area are presented in hTNFtg untreated as well as compound treated cells.

The mark [4] stands for this setting: read-out: CCL5 hTNFtg, percentage of level in untreated cells.
The mark [5] stands for this setting: read-out: CCL20 hTNFtg, percentage of level in untreated cells.
[6] abbreviates: read-out: IC50 (μM) CCL5 hTNFtg.
Setting [7] is: read-out: IC50 (μM) CCL20 hTNFtg.

In general, IC50 refers to the concentration needed to halve the response being measured.

Read-outs that look alike come from different tables or passages of the source. A value given as a limit tells only on which side of the number the result lay.

For `COc1cc(N)c(Cl)cc1C(=O)NCC1(c2ccc(Cl)cc2)CCCCCC1` [Compound 52, 4-amino-5-chloro-N-((1-(4-chlorophenyl)cycloheptyl)methyl)-2-methoxybenzamide], in the assay on hTNFtg SFs [1] (setting [4]), the activity at 10 µM amounted to 50% and the activity at 50 µM came out at 29%. For the same compound, in the assay with hTNFtg SFs [1] (setting [5]), the activity at 10 µM worked out at 67% and the activity at 50 µM is 48%. Besides, the IC50 in the assay with hTNFtg SFs [1] (setting [6]) was determined as 4.2 µM. Moreover, the IC50 with hTNFtg SFs [1] (setting [7]) is 15 µM. In the assay with hTNFtg SFs [2] (compound 10 μM), the “EOTAXIN hTNFTg, percentage of level in untreated cells” value (“EOTAXIN hTNFTg, percentage of level” below) was found to be 6%; the “KC hTNFTg, percentage of level in untreated cells” value (“KC hTNFTg, percentage of level” for short) turned out to be 49%; the “LIX hTNFTg, percentage of level in untreated cells” value (“LIX hTNFTg, percentage of level” for short) turned out to be 48%; the “MCP1 hTNFTg, percentage of level in untreated cells” value (from here on “MCP1 hTNFTg, percentage of level”) stood at 55%. For the same compound, in the assay with hTNF-activated wt SFs (compound 10 μM), the “EOTAXIN WT, percentage of level in untreated cells” value (shortened to “EOTAXIN WT, percentage of level”) was 26%; the “KC WT, percentage of level in untreated cells” value (shortened to “KC WT, percentage of level”) is listed as 34%; the “LIX WT, percentage of level in untreated cells” value (from here on “LIX WT, percentage of level”) stood at 23%; the “MCP1 WT, percentage of level in untreated cells” value (from here on “MCP1 WT, percentage of level”) was found to be 40%.

In the case of `COc1cc(N)c(Cl)cc1C(=O)NCC1(c2ccc(Cl)cc2)CCCCC1` [Compound 51, 4-amino-5-chloro-N-((1-(4-chlorophenyl)cyclohexyl)methyl)-2-methoxybenzamide], in the assay with hTNFtg SFs [1] (setting [4]), the activity at 10 µM is 46% and the activity at 50 µM came out at 47%. For the same compound, in the assay on hTNFtg SFs [1] (setting [5]), the activity at 10 µM turned out to be 16% and the activity at 50 µM was 13%. In addition, the IC50 in the assay with hTNFtg SFs [1] (setting [6]) is 2.6 µM. The IC50 with hTNFtg SFs [1] (setting [7]) amounted to 1 µM. In the assay on hTNFtg SFs [2] (compound 25 μM), the “EOTAXIN hTNFTg, percentage of level” value was 24%; the “KC hTNFTg, percentage of level” value is listed as 80%; the “LIX hTNFTg, percentage of level” value is reported as 22%; the “MCP1 hTNFTg, percentage of level” value is 89%. Moreover, in the assay on hTNF-activated wt SFs (compound 25 μM), the “EOTAXIN WT, percentage of level” value was 7%; the “KC WT, percentage of level” value stood at 41%; the “LIX WT, percentage of level” value was 3%; the “MCP1 WT, percentage of level” value worked out at 59%.

For the compound `COc1cc(N)c(Cl)cc1C(=O)NCC1(Nc2ccc(Cl)cc2)CCCCCC1` [Compound 53, 4-amino-5-chloro-N-((1-((4-chlorophenyl)amino)cycloheptyl)methyl)-2-methoxybenzamide], in the assay with hTNFtg SFs [1] (setting [4]), the activity at 10 µM worked out at 40% and the activity at 50 µM amounted to 34%. Moreover, in the assay on hTNFtg SFs [1] (setting [5]), the activity at 10 µM turned out to be 22% and the activity at 50 µM was determined as 22%. Moreover, in the assay on hTNFtg SFs [1] (setting [6]), the IC50 is 2.3 µM. Besides, the IC50 with hTNFtg SFs [1] (setting [7]) worked out at 3.2 µM. In addition, in the assay with hTNFtg SFs [2] (compound 10 μM), the “EOTAXIN hTNFTg, percentage of level” value came out at 9%; the “KC hTNFTg, percentage of level” value stood at 49%; the “LIX hTNFTg, percentage of level” value stood at 40%; the “MCP1 hTNFTg, percentage of level” value stood at 49.5%. Besides, the “MIP1β hTNFTg, percentage of level in untreated cells” value (shortened to “MIP1β hTNFTg, percentage of level”) with hTNFtg SFs [2] (compound 10 μM) stood at 33%. Besides, in the assay on hTNF-activated wt SFs (compound 10 μM), the “EOTAXIN WT, percentage of level” value stood at 59%; the “KC WT, percentage of level” value was found to be 68%; the “LIX WT, percentage of level” value is given as 24%; the “MCP1 WT, percentage of level” value is 57%. Besides, the “% of wound closure (mean ± SD)” value with hTNFtg SFs [3] is 67.7 ± 16.2%.

As for `COc1cc(N)c(Cl)cc1C(=O)NCC1(Nc2cccc(OC(F)(F)F)c2)CCCCCC1` [F, 4-amino-5-chloro-2-methoxy-N-((1-((3-(trifluoromethoxy)phenyl)amino)cycloheptyl)methyl)benzamide], in the assay on hTNFtg SFs [1] (setting [4]), the activity at 10 µM came to 0% and the activity at 25 µM came out at 0%. In the assay on hTNFtg SFs [1] (setting [5]), the activity at 10 µM stood at 24% and the activity at 25 µM worked out at 29%. Further, in the assay on hTNFtg SFs [1] (setting [6]), the IC50 was under 0.01 µM. Besides, in the assay on hTNFtg SFs [1] (setting [7]), the IC50 is under 0.01 µM. Also, in the assay on hTNFtg SFs [2] (compound 10 μM), the “EOTAXIN hTNFTg, percentage of level” value is given as 0%; the “KC hTNFTg, percentage of level” value stood at 35%; the “LIX hTNFTg, percentage of level” value turned out to be 1%; the “MCP1 hTNFTg, percentage of level” value is 13.5%. In addition, the “MIP1β hTNFTg, percentage of level” value in the assay with hTNFtg SFs [2] (compound 10 μM) came to 12.5%. For the same compound, the “% of wound closure (mean ± SD)” value with hTNFtg SFs [3] was found to be 63 ± 11.8%.

For the compound `COc1cc(N)c(Cl)cc1C(=O)NCC1(Nc2ccc(F)cc2Cl)CCCCCC1` [E, 4-amino-5-chloro-N-((1-((2-chloro-4-fluorophenyl)amino)cycloheptyl)methyl)-2-methoxybenzamide], in the assay on hTNFtg SFs [1] (setting [4]), the activity at 10 µM worked out at 8.2% and the activity at 25 µM was determined as 5%. Moreover, in the assay with hTNFtg SFs [1] (setting [5]), the activity at 10 µM was 14% and the activity at 25 µM turned out to be 20%. In addition, the IC50 with hTNFtg SFs [1] (setting [6]) was 1.69 µM. In addition, in the assay on hTNFtg SFs [1] (setting [7]), the IC50 is 4.07 µM. In addition, in the assay on hTNFtg SFs [2] (compound 10 μM), the “EOTAXIN hTNFTg, percentage of level” value stood at 2.5%; the “KC hTNFTg, percentage of level” value was 32%; the “LIX hTNFTg, percentage of level” value came to 19.5%; the “MCP1 hTNFTg, percentage of level” value was 25.5%. Besides, in the assay on hTNFtg SFs [2] (compound 10 μM), the “MIP1β hTNFTg, percentage of level” value turned out to be 24%. For the same compound, in the assay on hTNFtg SFs [3], the “% of wound closure (mean ± SD)” value is 73 ± 31.5%.
